In PubChem BioAssay AID488967 (The Scripps Research Institute Molecular Screening Center, 2010):
Active and inactive are the calls of the source. The rule behind the calls is not given here.

Tested on: SARS coronavirus 3C-like protease (3CLpro, nsp5)
Assay: blockers of SARS 3CLpro activity – biochemical, fluorescence, assay provider results, late-stage follow-up (AID 488967)
Details: recombinant 3CLpro, fluorogenic peptide cleavage; at 100 µM; active compounds read high

Compound	inhibition
CC(=O)Nc1ccc(N(C(=O)Cn2nnc3ccccc32)C(C(=O)NC(C)(C)C)c2cccc(F)c2)cc1 (configuration not stated)	90.2%
CC(C)(C)C(=O)Nc1ccc(N(Cc2ccsc2)C(=O)Cn2nnc3ccccc32)cc1	86.3%
O=C(NCc1ccccc1)C(c1cccc(F)c1)N(C(=O)Cn1nnc2ccccc21)C12CC3CC(CC(C3)C1)C2 (configuration not stated)	11.1% (inactive)
CC(C)(C)NC(=O)C(c1ccsc1)N(C(=O)Cn1nnc2ccccc21)c1ccc(NC(=O)C2CCCCC2)cc1 (configuration not stated)	84.9%
O=C(Nc1ccc(N(Cc2ccsc2)C(=O)Cn2nnc3ccccc32)cc1)c1ccccc1	18.2% (inactive)
CC(C)(C)NC(=O)C(c1ccsc1)N(C(=O)Cn1nnc2ccccc21)c1ccc(NC(=O)c2cccs2)cc1 (configuration not stated)	14.6% (inactive)
CC(C)(C)NC(=O)C(c1ccsc1)N(C(=O)Cn1nnc2ccccc21)c1ccc(NC(=O)c2ccccc2)cc1 (configuration not stated)	-7% (inactive)
O=C(NCc1ccccc1)C(c1cccc(F)c1)N(C(=O)Cn1nnc2ccccc21)C1CC2CCC1C2 (configuration not stated)	42.5% (inactive)
CC(C)COC(=O)Nc1ccc(N(C(=O)Cn2nnc3ccccc32)C(C(=O)NC(C)(C)C)c2ccsc2)cc1 (configuration not stated)	0.9% (inactive)
CC(C)(C)NC(=O)C(c1cncnc1)N(C(=O)c1cnco1)c1ccc(C(C)(C)C)cc1 (configuration not stated)	36.2% (inactive)
CCC(C)c1ccc(N(C(=O)c2ccco2)[C@@H](C(=O)NC(C)(C)C)c2cccnc2)cc1 (some centres not stated)	-3.8% (inactive)
CC(C)(C)NC(=O)C(c1cccnc1)N(C(=O)Cc1cnc[nH]1)c1ccc(C(C)(C)C)cc1 (configuration not stated)	15.7% (inactive)
O=C(Nc1ccc(N(Cc2ccsc2)C(=O)Cn2nnc3ccccc32)cc1)C1CC1	82.8%
CC(C)(C)NC(=O)C(c1cccc(F)c1)N(C(=O)Cn1nnc2ccccc21)C12CC3CC(CC(C3)C1)C2 (configuration not stated)	10.6% (inactive)
CC(C)(C)NC(=O)C(c1cccnc1)N(C(=O)c1ccc[nH]1)c1ccc(C(C)(C)C)cc1 (configuration not stated)	18.6% (inactive)
CC(C)(C)NC(=O)C(c1cccnc1)N(C(=O)c1ncco1)c1ccc(C(C)(C)C)cc1 (configuration not stated)	51.6%

Compound	inhibition
CC(C)(C)NC(=O)C(c1ccsc1)N(C(=O)Cn1nnc2ccccc21)c1ccc(NC(=O)C2CCC2)cc1 (configuration not stated)	22.7% (inactive)
O=C(Nc1ccc(N(Cc2ccsc2)C(=O)Cn2nnc3ccccc32)cc1)C1CCCCC1	22.1% (inactive)
CC(C)(C)NC(=O)C(c1ccsc1)N(C(=O)Cn1nnc2ccccc21)c1ccc(NC(=O)C2CC2)cc1 (configuration not stated)	85.7%
CC(C)(C)NC(=O)C(c1cccc(F)c1)N(C(=O)Cn1nnc2ccccc21)C1CC2CCC1C2 (configuration not stated)	32.7% (inactive)
CC(C)(C)NC(=O)C(c1cccnc1)N(C(=O)c1ccc(Cl)o1)c1ccc(C(C)(C)C)cc1 (configuration not stated)	89.6%
CC(C)(C)NC(=O)C(c1ccsc1)N(C(=O)Cn1nnc2ccccc21)c1ccc(NC(=O)C(C)(C)C)cc1 (configuration not stated)	77.4%
O=C(Nc1ccc(N(Cc2ccsc2)C(=O)Cn2nnc3ccccc32)cc1)c1cccs1	32.9% (inactive)
CC(C)C(=O)Nc1ccc(N(Cc2ccsc2)C(=O)Cn2nnc3ccccc32)cc1	83.6%
CC(C)(C)NC(=O)C(c1cncnc1)N(C(=O)c1cnc[nH]1)c1ccc(C(C)(C)C)cc1 (configuration not stated)	66.8%
CCC(C)c1ccc(N(C(=O)c2ccco2)[C@H](C(=O)NC(C)(C)C)c2cccnc2)cc1 (some centres not stated)	93.1%
CC(C)(C)NC(=O)C(c1ccsc1)N(C(=O)Cn1nnc2ccccc21)c1ccc(NC(=O)c2ccno2)cc1 (configuration not stated)	59.4%
CC(C)(C)NC(=O)[C@@H](c1cccnc1)N(C(=O)c1ccco1)c1ccc(C(C)(C)C)cc1	98.8%
CC(C)COC(=O)Nc1ccc(N(Cc2ccsc2)C(=O)Cn2nnc3ccccc32)cc1	10.3% (inactive)
CC(=O)Nc1ccc(N(C(=O)Cn2nnc3ccccc32)C(C(=O)NCc2ccccc2)c2cccc(F)c2)cc1 (configuration not stated)	84.7%
CC(C)(C)NC(=O)[C@H](c1cccnc1)N(C(=O)c1ccco1)c1ccc(C(C)(C)C)cc1	25% (inactive)
O=C(Nc1ccc(N(Cc2ccsc2)C(=O)Cn2nnc3ccccc32)cc1)C1CCC1	85.7%
